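Following 48 hours of exposure in 96-well plates, responses at five concentrations were used to interpolate endpoints linearly. At the TGI there is no net growth.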
Key:
Experiment in all cases: DTP human tumour cell line panel, 48 h
[1] = system: ACHN renal
[2] = system: SK-MEL-28 melanoma
[3] = system: SNB-19 CNS
[4] = system: MDA-MB-231 breast
[5] = system: UACC-257 melanoma
[6] = system: HCC-2998 colon
[7] = system: A498 renal
[8] = system: EKVX NSCLC
[9] = system: MDA-MB-435
[10] = system: CAKI-1 renal
[11] = system: RXF 393 renal
[12] = system: SF-295 CNS
[13] = system: IGROV1 ovarian
[14] = system: SF-539 CNS
[15] = system: UACC-62 melanoma
[16] = system: TK-10 renal
[17] = system: HOP-92 NSCLC
[18] = system: NCI-H522 lung
[19] = system: U251 CNS
[20] = system: NCI-H460 lung
[21] = system: MCF7 breast
[22] = system: MDA-N
[23] = system: BT-549 breast
[24] = system: OVCAR-4 ovarian
[25] = system: COLO 205 colon
[26] = system: NCI-H23 lung
[27] = system: SW-620 colon
[28] = system: SK-MEL-2 melanoma
[29] = system: RPMI-8226 leukemia
[30] = system: T-47D breast
[31] = system: K-562 leukemia
[32] = system: OVCAR-8 ovarian
[33] = system: HOP-62 NSCLC
[34] = system: NCI-H226 lung
[35] = system: HCT-15 colon
[36] = system: SK-MEL-5 melanoma
[37] = system: SNB-75 CNS
[38] = system: SF-268 CNS
[39] = system: A549 NSCLC
[40] = system: HCT-116 colon
[41] = system: HS 578T breast
[42] = system: UO-31 renal
[43] = system: HT29 colon
[44] = system: DU-145 prostate
[45] = system: PC-3 prostate
[46] = system: M14 melanoma
[47] = system: SK-OV-3 ovarian
[48] = system: 786-0 renal
[49] = system: SN12C renal
[50] = system: OVCAR-5 ovarian
[51] = system: KM12 colon
[52] = system: NCI/ADR-RES ovarian
[53] = system: LOX IMVI melanoma
[54] = system: SR leukemia
[55] = system: HL-60(TB) leukemia
[56] = system: MALME-3M melanoma
[57] = system: CCRF-CEM leukemia
[58] = system: MOLT-4 leukemia
[59] = system: OVCAR-3 ovarian

C=CCCC1CCCNC1=S (stereo not given)
TGI [1]: > 100 µM
TGI [2]: > 100 µM
TGI [3]: > 100 µM
TGI [4]: > 100 µM
TGI [5]: > 100 µM
TGI [6]: > 100 µM
TGI [7]: > 100 µM
TGI [8]: > 100 µM
TGI [9]: > 100 µM
TGI [10]: > 100 µM
TGI [11]: > 100 µM
TGI [12]: > 100 µM
TGI [13]: > 100 µM
TGI [14]: > 100 µM
TGI [15]: > 100 µM
TGI [16]: > 100 µM
TGI [17]: > 100 µM
TGI [18]: > 100 µM
TGI [19]: > 100 µM
TGI [20]: > 100 µM
TGI [21]: > 100 µM
TGI [22]: > 100 µM
TGI [23]: > 100 µM
TGI [24]: > 100 µM
TGI [25]: > 100 µM
TGI [26]: > 100 µM
TGI [27]: > 100 µM
TGI [28]: > 100 µM
TGI [29]: > 100 µM
TGI [30]: > 100 µM
TGI [31]: > 100 µM
TGI [32]: > 100 µM
TGI [33]: > 100 µM
TGI [34]: > 100 µM
TGI [35]: > 100 µM
TGI [36]: > 100 µM
TGI [37]: > 100 µM
TGI [38]: > 100 µM
TGI [39]: > 100 µM
TGI [40]: > 100 µM
TGI [41]: > 100 µM
TGI [42]: > 100 µM
TGI [43]: > 100 µM
TGI [44]: > 100 µM
TGI [45]: > 100 µM
TGI [46]: > 100 µM
TGI [47]: > 100 µM
TGI [48]: > 100 µM
TGI [49]: > 100 µM
TGI [50]: > 100 µM

CN(C)CCn1nc2c3c(c(C(=O)NCCCN(C)CCCNC(=O)c4ccc5c6c(nn5CCN(C)C)-c5ccccc5Nc46)ccc31)Nc1ccccc1-2
TGI [1]: 6.26 µM
TGI [2]: 1.15 µM
TGI [3]: 0.748 µM
TGI [4]: 0.518 µM
TGI [5]: 1.09 µM
TGI [51]: 1.33 µM
TGI [52]: > 71.2 µM
TGI [6]: 0.245 µM
TGI [7]: 0.623 µM
TGI [8]: 0.505 µM
TGI [9]: 0.415 µM
TGI [10]: 3.3 µM
TGI [11]: 1.45 µM
TGI [53]: 1.28 µM
TGI [12]: 2.08 µM
TGI [13]: 15.6 µM
TGI [14]: 2.19 µM
TGI [54]: 1.2 µM
TGI [15]: 0.424 µM
TGI [16]: 3.32 µM
TGI [18]: 0.117 µM
TGI [19]: 0.452 µM
TGI [20]: 0.432 µM
TGI [21]: 0.582 µM
TGI [22]: 0.318 µM
TGI [23]: 1.65 µM
TGI [24]: 0.658 µM
TGI [25]: 0.227 µM
TGI [26]: 0.617 µM
TGI [27]: 3.49 µM
TGI [55]: 0.944 µM
TGI [28]: 0.243 µM
TGI [29]: 1.37 µM
TGI [30]: 10.5 µM
TGI [31]: 1.89 µM
TGI [32]: 2.97 µM
TGI [33]: 0.574 µM
TGI [34]: 0.217 µM
TGI [35]: 16.6 µM
TGI [36]: 1.46 µM
TGI [37]: 0.272 µM
TGI [38]: 0.549 µM
TGI [39]: 0.332 µM
TGI [56]: 0.28 µM
TGI [40]: 0.525 µM
TGI [41]: 1.86 µM
TGI [42]: 3.22 µM
TGI [57]: 2.63 µM
TGI [43]: 0.561 µM
TGI [45]: 0.834 µM
TGI [46]: 1.58 µM
TGI [47]: 0.407 µM
TGI [48]: 1.28 µM
TGI [49]: 0.708 µM
TGI [50]: 0.751 µM
TGI [58]: 1.58 µM

Cc1cccc(NC(=O)/C=C/c2ccccc2)c1C
TGI [1]: > 100 µM
TGI [2]: > 100 µM
TGI [3]: > 100 µM
TGI [4]: > 100 µM
TGI [5]: > 100 µM
TGI [51]: > 100 µM
TGI [6]: > 100 µM
TGI [7]: > 100 µM
TGI [8]: > 100 µM
TGI [9]: > 100 µM
TGI [10]: > 100 µM
TGI [53]: > 100 µM
TGI [12]: > 100 µM
TGI [14]: > 100 µM
TGI [54]: > 100 µM
TGI [15]: > 100 µM
TGI [16]: > 100 µM
TGI [18]: > 100 µM
TGI [19]: > 100 µM
TGI [20]: > 100 µM
TGI [21]: > 100 µM
TGI [22]: > 100 µM
TGI [23]: > 100 µM
TGI [24]: > 100 µM
TGI [25]: > 100 µM
TGI [26]: > 100 µM
TGI [27]: > 100 µM
TGI [55]: > 100 µM
TGI [28]: > 100 µM
TGI [29]: > 100 µM
TGI [30]: > 100 µM
TGI [31]: > 100 µM
TGI [32]: > 100 µM
TGI [59]: > 100 µM
TGI [33]: > 100 µM
TGI [34]: > 100 µM
TGI [35]: > 100 µM
TGI [36]: > 100 µM
TGI [37]: > 100 µM
TGI [38]: > 100 µM
TGI [39]: > 100 µM
TGI [56]: > 100 µM
TGI [40]: > 100 µM
TGI [41]: > 100 µM
TGI [57]: > 100 µM
TGI [43]: > 100 µM
TGI [44]: > 100 µM
TGI [45]: > 100 µM
TGI [46]: > 100 µM
TGI [47]: > 100 µM
TGI [48]: > 100 µM
TGI [49]: > 100 µM
TGI [50]: > 100 µM
TGI [58]: > 100 µM
